{"source": "patent US20240148821A1", "about": "“PHARMACEUTICAL USE OF CYCLIC PEPTIDE COMPOUND” (CHUGAI SEIYAKU KABUSHIKI KAISHA, priority 2021, published 2024)", "note": "Bridge positions count the residues as written; N and C are the ends. Square brackets hold non-standard residues; d marks the D form. Peptide text beside a SMILES is read from it. * marks the point of attachment. hPhe(3,5-F2-4-CF3) = N[C@@H](CCc1cc(F)c(C(F)(F)F)c(F)c1)C(=O)O; hPhe(3-Cl-4-CF3) = N[C@@H](CCc1ccc(C(F)(F)F)c(Cl)c1)C(=O)O; hPhe(3-F,4-CF3) = N[C@@H](CCc1ccc(C(F)(F)F)c(F)c1)C(=O)O; NMePhe(4-CF3) = CN[C@@H](Cc1ccc(C(F)(F)F)cc1)C(=O)O; NMePhe(3-Br) = CN[C@@H](Cc1cccc(Br)c1)C(=O)O; NMePhe(4-Cl) = CN[C@@H](Cc1ccc(Cl)cc1)C(=O)O; NMePhe(4-Me) = CN[C@@H](Cc1ccc(C)cc1)C(=O)O; NMeGly(cPent) = CN[C@H](C(=O)O)C1CCCC1; Phe(3-I) = N[C@@H](Cc1cccc(I)c1)C(=O)O; NMeCha = CN[C@@H](CC1CCCCC1)C(=O)O; NMehLeu = CN[C@@H](CCC(C)C)C(=O)O; Hyp = O=C(O)[C@@H]1C[C@@H](O)CN1; NMeChg = CN[C@H](C(=O)O)C1CCCCC1; NMeI = CC[C@H](C)[C@H](NC)C(=O)O; NMeT = CN[C@H](C(=O)O)[C@@H](C)O; N(CH2CH2)2CF2 = FC1(F)CCN(*)CC1; NMeD = CN[C@@H](CC(=O)O)C(=O)O; NMeL = CN[C@@H](CC(C)C)C(=O)O; Ahp(2) = CCCCC[C@H](N)C(=O)O; hLeu = CC(C)CC[C@H](N)C(=O)O; NMeV = CN[C@H](C(=O)O)C(C)C; d(β3hA) = C[C@@H](N)CC(=O)O; Morpholide = C1CN(*)CCO1; NMeA = CN[C@@H](C)C(=O)O; NMeAib = CNC(C)(C)C(=O)O; Piperidide = C1CCN(*)CC1; Pra = C#CC[C@H](N)C(=O)O; Pyrrolidide = C1CCN(*)C1; Ac5c = NC1(C(=O)O)CCCC1; Aze = O=C(O)[C@@H]1CCN1; Sar = CNCC(=O)O", "data": [{"tested_on": "Human pancreatic cancer cell line AsPC-1 (G12D mutation Kras)", "test": "AsPC-1 cell growth inhibition (AsPC-1 CGI)", "type": "cell-based", "conditions": "read-out: AsPC-1 cell growth inhibition, 50% growth inhibitory concentration (IC50 value); 96 hours, CellTiter-Glo, values classified in ranges", "units": {"IC50": "nM"}, "procedure": "Test compounds were serially dilated with dimethyl sulfoxide, and 200 nL was then dispensed to a U-bottom 96-well plate using Labcyte Echo. […] The cell suspension was dispensed to a. plate containing a test compound at 100 μL per well and incubated at 37° C. in a 5% carbon dioxide gas incubator. 96 hours later, 80 μL of CellTiter-Glo (Promega) was added to each well and fluorescence was measured.", "values": [{"smiles": "CC[C@H](C)[C@@H]1NC(=O)[C@H](CC(C)C)N(C)C(=O)C[C@@H](C)NC(=O)[C@H](C(C)C)N(C)C(=O)C2(CCCC2)NC(=O)[C@@H]2CCCN2C(=O)[C@H](CCc2ccc(C(F)(F)F)c(Cl)c2)NC(=O)CN(C)C(=O)[C@H](Cc2cccc(Br)c2)N(C)C(=O)CN(C)C(=O)CN(C)C1=O", "note": "[Compound 1587] (cyclo([Ac5c][NMeV][d(β3hA)][NMeL]I[Sar][Sar][NMePhe(3-Br)][Sar][hPhe(3-Cl-4-CF3)]P))", "IC50": "> 500"}, {"smiles": "CCCCC[C@@H]1NC(=O)[C@H](CC(C)C)N(C)C(=O)C[C@@H](C(=O)N2CCCCC2)N(C)C(=O)[C@H](C2CCCCC2)N(C)C(=O)C2(CCCC2)NC(=O)[C@@H]2CCCN2C(=O)[C@H](CCc2ccc(C(F)(F)F)c(Cl)c2)NC(=O)CN(C)C(=O)[C@H](CC2CCCCC2)N(C)C(=O)CN(C)C(=O)CN(C)C1=O", "note": "[Compound 1692] ([NMeL][Ahp(2)][Sar][Sar][NMeCha][Sar][hPhe(3-Cl-4-CF3)]P[Ac5c][NMeChg][NMeD]-Piperidide; lactam N-11)", "IC50": "> 500"}, {"smiles": "Cc1ccc(C[C@H]2C(=O)N(C)CC(=O)N[C@@H](CCc3ccc(C(F)(F)F)c(Cl)c3)C(=O)N3CCC[C@H]3C(=O)NC3(CCCC3)C(=O)N(C)[C@@H](C3CCCC3)C(=O)N[C@H](C)CC(=O)N(C)[C@@H](CC(C)C)C(=O)N[C@@H](C)C(=O)N(C)[C@@H](C)C(=O)N3CC[C@H]3C(=O)N2C)cc1", "note": "[Compound 1225] (cyclo(A[NMeA][Aze][NMePhe(4-Me)][Sar][hPhe(3-Cl-4-CF3)]P[Ac5c][NMeGly(cPent)][d(β3hA)][NMeL]))", "IC50": "> 500"}, {"smiles": "CC[C@H](C)[C@@H]1NC(=O)[C@H](CCC(C)C)N(C)C(=O)C[C@@H](C(=O)N2CCCC2)N(C)C(=O)[C@H]([C@@H](C)CC)N(C)C(=O)C2(CCCC2)NC(=O)[C@@H]2CCCN2C(=O)[C@H](CCc2ccc(C(F)(F)F)c(Cl)c2)NC(=O)CN(C)C(=O)[C@H](Cc2ccc(C(F)(F)F)cc2)N(C)C(=O)[C@@H]2CCN2C(=O)[C@H](C)N(C)C1=O", "note": "[Compound 1289] ([NMehLeu]I[NMeA][Aze][NMePhe(4-CF3)][Sar][hPhe(3-Cl-4-CF3)]P[Ac5c][NMeI][NMeD]-Pyrrolidide; lactam N-11)", "IC50": "≤ 20"}, {"smiles": "C#CC[C@@H]1NC(=O)[C@H](Cc2cccc(I)c2)NC(=O)CN(C)C(=O)[C@H](Cc2ccc(C(F)(F)F)cc2)N(C)C(=O)[C@@H]2CCN2C(=O)CN(C)C(=O)[C@H]([C@@H](C)CC)NC(=O)[C@H](CC(C)C)N(C)C(=O)C[C@@H](C(=O)N2CCCCC2)N(C)C(=O)[C@H](CC(C)C)NC(=O)C(C)(C)N(C)C1=O", "note": "[Compound 1425] ([NMeL]I[Sar][Aze][NMePhe(4-CF3)][Sar][Phe(3-I)][Pra][NMeAib]L[NMeD]-Piperidide; lactam N-11)", "IC50": "> 500"}, {"smiles": "CC[C@H](C)[C@@H]1NC(=O)[C@H](CC(C)C)N(C)C(=O)C[C@@H](C(=O)N2CCCCC2)N(C)C(=O)[C@H]([C@@H](C)CC)N(C)C(=O)C2(CCCC2)NC(=O)[C@@H]2CCCN2C(=O)[C@H](CCc2ccc(C(F)(F)F)c(Cl)c2)NC(=O)CN(C)C(=O)[C@H](Cc2ccc(C)cc2)N(C)C(=O)CN(C)C(=O)CN(C)C1=O", "note": "[Compound 1649] ([NMeL]I[Sar][Sar][NMePhe(4-Me)][Sar][hPhe(3-Cl-4-CF3)]P[Ac5c][NMeI][NMeD]-Piperidide; lactam N-11)", "IC50": "≤ 20"}, {"smiles": "CC(C)CC[C@@H]1NC(=O)[C@H](CC(C)C)N(C)C(=O)C[C@@H](C(=O)N2CCCCC2)N(C)C(=O)[C@H](C2CCCCC2)N(C)C(=O)C2(CCCC2)NC(=O)[C@@H]2CCCN2C(=O)[C@H](CCc2ccc(C(F)(F)F)c(Cl)c2)NC(=O)CN(C)C(=O)[C@H](CC2CCCCC2)N(C)C(=O)CN(C)C(=O)CN(C)C1=O", "note": "[Compound 1651] ([NMeL][hLeu][Sar][Sar][NMeCha][Sar][hPhe(3-Cl-4-CF3)]P[Ac5c][NMeChg][NMeD]-Piperidide; lactam N-11)", "IC50": "> 500"}, {"smiles": "CC[C@H](C)[C@@H]1NC(=O)[C@H](CC(C)C)N(C)C(=O)C[C@@H](C(=O)N2CCCCC2)N(C)C(=O)[C@H](C2CCCCC2)N(C)C(=O)C2(CCCC2)NC(=O)[C@@H]2CCCN2C(=O)[C@H](CCc2ccc(C(F)(F)F)c(Cl)c2)NC(=O)CN(C)C(=O)[C@H]([C@@H](C)O)N(C)C(=O)CN(C)C(=O)CN(C)C1=O", "note": "[Compound 427] ([NMeL]I[Sar][Sar][NMeT][Sar][hPhe(3-Cl-4-CF3)]P[Ac5c][NMeChg][NMeD]-Piperidide; lactam N-11)", "IC50": "> 500"}, {"smiles": "CCO[C@@H]1C[C@H]2C(=O)NC3(CCCC3)C(=O)N(C)[C@@H]([C@@H](C)CC)C(=O)N(C)[C@H](C(=O)N3CCOCC3)CC(=O)N(C)[C@@H](CC(C)C)C(=O)N[C@@H]([C@@H](C)CC)C(=O)N(C)[C@@H](C)C(=O)N3CC[C@H]3C(=O)N(C)[C@@H](Cc3ccc(C(F)(F)F)cc3)C(=O)N(C)CC(=O)N[C@@H](CCc3cc(F)c(C(F)(F)F)c(F)c3)C(=O)N2C1", "note": "[Compound 1261] ([NMeL]I[NMeA][Aze][NMePhe(4-CF3)][Sar][hPhe(3,5-F2-4-CF3)][Hyp](Et)[Ac5c][NMeI][NMeD]-Morpholide; lactam N-11)", "IC50": "≤ 20"}, {"smiles": "CC[C@H](C)[C@@H]1NC(=O)[C@H](C(C)C)N(C)C(=O)C[C@@H](C)NC(=O)[C@H](CC(C)C)N(C)C(=O)C2(CCCC2)NC(=O)[C@H](CC(C)C)N(C)C(=O)[C@H](CCc2ccc(C(F)(F)F)c(F)c2)NC(=O)CN(C)C(=O)[C@H](Cc2ccc(Cl)cc2)N(C)C(=O)CN(C)C(=O)CN(C)C1=O", "note": "[Compound 851] (cyclo([Ac5c][NMeL][d(β3hA)][NMeV]I[Sar][Sar][NMePhe(4-Cl)][Sar][hPhe(3-F,4-CF3)][NMeL]))", "IC50": "> 500"}, {"smiles": "CC[C@H](C)[C@@H]1NC(=O)[C@H](CC(C)C)N(C)C(=O)C[C@@H](C(=O)N2CCCCC2)N(C)C(=O)[C@H](C(C)C)N(C)C(=O)[C@H](C)NC(=O)[C@H](CC(=O)N2CCC(F)(F)CC2)N(C)C(=O)[C@H](CCc2ccc(C(F)(F)F)c(Cl)c2)NC(=O)CN(C)C(=O)[C@H](CC2CCCCC2)N(C)C(=O)CN(C)C(=O)CN(C)C1=O", "note": "[Compound 444] ([NMeL]I[Sar][Sar][NMeCha][Sar][hPhe(3-Cl-4-CF3)][NMeD](N(CH2CH2)2CF2)A[NMeV][NMeD]-Piperidide; lactam N-11)", "IC50": "> 500"}, {"smiles": "CC[C@H](C)[C@@H]1NC(=O)[C@H](CC(C)C)N(C)C(=O)C[C@@H](C)NC(=O)[C@H](C(C)C)N(C)C(=O)C2(CCCC2)NC(=O)[C@@H]2CCCN2C(=O)[C@H](CCc2ccc(C(F)(F)F)c(Cl)c2)NC(=O)CN(C)C(=O)[C@H](CC2CCCCC2)N(C)C(=O)CN(C)C(=O)[C@@H]2CCCN2C1=O", "note": "[Compound 185] (cyclo([Ac5c][NMeV][d(β3hA)][NMeL]IP[Sar][NMeCha][Sar][hPhe(3-Cl-4-CF3)]P))", "IC50": "> 500"}, {"smiles": "CC[C@H](C)[C@@H]1NC(=O)[C@H](CC(C)C)N(C)C(=O)C[C@@H](C)NC(=O)[C@H](CC(C)C)N(C)C(=O)C2(CCCC2)NC(=O)[C@@H]2CCN2C(=O)[C@H](CCc2ccc(C(F)(F)F)c(F)c2)NC(=O)CN(C)C(=O)[C@H](CC2CCCCC2)N(C)C(=O)CN(C)C(=O)CN(C)C1=O", "note": "[Compound 1545] (cyclo([Ac5c][NMeL][d(β3hA)][NMeL]I[Sar][Sar][NMeCha][Sar][hPhe(3-F,4-CF3)][Aze]))", "IC50": "> 500"}]}]}
